# Assay results published in patent US5053216A, “Radioactive Jomol, its derivatives, processes for the production of these compounds, their use and product” (priority 1985, dated 1991).
# Legend:
# [1] = human body; cited from earlier work
# [2] = format: physicochemical; settings: acid environment / stomach
Compound,rate of metabolism versus ethanol [1],removal of bound radium [2]
CO [Methanol],substantially more slowly,
O=Cc1ccc2c(c1)OCC(=O)N1CCOCCOCCN(CCOCCOCC1)C(=O)CO2 [CE],,"instable in the stomach, stable in the rest of the body"
